From paper PMC6736568, “Discovery of Novel Anti-cryptosporidial Activities From Natural Products by in vitro High-Throughput Phenotypic Screening” (Frontiers in Microbiology, 2019)
Like-named read-outs stand apart in the source and are kept apart here. *1 amine or outer side, *2 acyl side, *3 side chain or, on linkers, in order; H or OH if unused. Where a SMILES comes first, the peptide text is derived from it. Bridges are numbered along the chain shown (N, C = ends). Roman numbers before positions name the chains, in order. [ ]: non-standard residue; d: D form. Actinocin(9to1) = Cc1c2oc3c(C)ccc(C(=O)[*:1])c3nc-2c(C(=O)[*:2])c(N)c1=O; NMeV = CN[C@H](C(=O)O)C(C)C; Sar = CNCC(=O)O

Legend:
in vitro = conditions: for cytotoxicity at 41 h, 10 µM: human
Cryptosporidium parvum [1] = experiment: qRT-PCR assay of the growth of C. parvum in vitro in HCT-8 host cells (primary and secondary screening, EC50); format: cell-based; conditions: Cryptosporidium parvum; for inhibition at 10 µM / inhibition at 3.3 µM: HCT-8; for inhibition at 10 µM: primary screening at 10 uM, read-out: Inhibition (%); for inhibition at 3.3 µM: secondary screening at 3.3 uM, read-out: % Inhibition (3.3 uM); for EC50: growth of C. parvum in vitro, HCT-8 host cells, 44 h infection
HCT-8 cells = experiment: In vitro cytotoxicity MTS assay on host cells; format: cell-based, human; conditions: 41 h
Description: The plates were measured for absorbance at 490 nm in 15 min intervals in a SmartReader 96 microplate reader (Accuris, Edison, NJ, United States). Cytotoxicity of a compound was quantified by calculating the half maximal toxic concentration on host cells (TC50). An in vitro safety interval (SI) was calculated by determining the ratio between TC50 and EC50 values (i.e., SI = TC50/EC50).

[2] = system: cryptosporidial infection; parameters: method as in Lemeteil et al., 1993; conditions: ref Lemeteil et al., 1993; cited from earlier work
Cryptosporidium parvum [3] = experiment: Drug withdrawal assay (qRT-PCR at 44 hpi); format: cell-based; conditions: assayed at 44 hpi, cedrelone 1.0 μM, Deox B 7,4 2.0 μM, baicalein 3.3 μM, PRM 150 μM
Description: For drug withdrawal assay, HCT-8 cells were cultured and inoculated with C. parvum oocysts (50,000 oocysts/well) for 3 h. After a medium exchange, individual compounds at EC80 final concentrations were added into wells. Compounds were removed at 22 hpi time point by a medium exchange, and infected cells were allowed to grow up to 44 hpi (3–22 hpi treatment groups). A full course of treatment for each compound was included as control (3–44 hpi treatment groups). Cell lysates were prepared at 44 hpi time point for qRT-PCR.
(§1) In all experiments, negative controls were treated with diluent (0.5% DMSO) for the same durations of corresponding drug treatment groups. All experiments include least three biological replicates for each compound in the in vitro drug treatment assay and two technical replicates for each biological replicate in the qRT-PCR assay.

Cryptosporidium parvum [4] = experiment: Effect on different parasite developmental stages in vitro (qRT-PCR); format: cell-based; conditions: cedrelone 1.0 μM, Deox B 7,4 2.0 μM, baicalein 3.3 μM, PRM 150 μM
Description: We selected three top hits derived from plants for evaluating their activity against various developmental stages of C. parvum. For evaluating the effect on the parasite invasion (i.e., 0–3 hpi treatment groups), host cell monolayers will be incubated with C. parvum oocysts (10^5 oocysts/well) in 96-well plates together with individual compounds at around EC80 concentrations. For evaluating the effect on various stages of intracellular parasites (i.e., 3–10 hpi, […], 22–44 hpi, and 3–44 hpi treatment groups), host cell monolayers were incubated with C. parvum oocysts (50,000 oocysts/well) for 3 h, followed by the removal of uninvaded parasites by a medium exchange. These time points roughly corresponded to the invasion into host cells (0–3 hpi), the development of first and some second generation of merogony (3–22 hpi) or second generation of merogony and gametogenesis (22–44 hpi). Individual compounds at EC80 final concentrations were added into wells at specified post-infection time points, and plates were incubated for specified durations of post-infection times. Cell lysates were prepared at the end of each treatment for qRT-PCR.
as §1

[5] = mouse, ip; ref MicroSource NatProd Collection note; cited from earlier work
[6] = primary screening at 10 uM, treated vs control

Row | SMILES | cytotoxicity at 41 h, 10 µM (in vitro) | inhibition at 10 µM (Cryptosporidium parvum [1]) | inhibition at 3.3 µM (Cryptosporidium parvum [1]) | EC50 (Cryptosporidium parvum [1]) | TC50 (HCT-8 cells; HCT-8 cells, MTS) | Hs18S ΔCT (HCT-8 host cells (Hs18S); human, 41 h, 10 μM) | cytotoxicity at 10 µM (in vitro) | Hs18S ΔCT (HCT-8 host cells (Hs18S); [6]) | also measured
1 | COc1ccc(C(=O)c2ccc(O)cc2)c(O)c1O [2,3,4′-Trihydroxy-4-methoxybenzophenone] | 6.4% | 83.2% | 59% | 3.69 µM | >100 µM | 0.10 | – | – | –
2 | COC(=O)C[C@H]1C(C)(C)[C@@H](O)[C@@H]2CC3=C4C=C(OC)O[C@@H](c5ccoc5)[C@]4(C)CCC3[C@@]1(C)C2=O (stereo partly drawn) [3-Deoxo-3beta-hydroxy-mexicanolide 16-enol ether] | -40.1% | 90% | 71% | 3.94 µM | >100 µM | -0.49 | – | – | –
3 | O=c1cc(-c2ccccc2)oc2cc(O)c(O)c(O)c12 [Baicalein] | 6.7% | 81.3% | 66% | 0.981 µM | – | 0.10 | – | – | TC50 (HCT-8 cells; human): >100 µM
4 | CC1(C)C(=O)C=C[C@@]2(C)C1=C(O)C(=O)[C@]1(C)[C@@H]2CC[C@@]2(C)[C@H](c3ccoc3)C[C@H]3O[C@]321 [Cedrelone] | 61.7% | 99.5% | – | 0.267 µM | – | 1.38 | – | – | TC50 (HCT-8 cells; human): 3.59 µM
5 | Cc1c2oc3c(C)ccc(C(=O)N[C@@H]4C(=O)N[C@H](C(C)C)C(=O)N5CCC[C@H]5C(=O)N(C)CC(=O)N(C)[C@@H](C(C)C)C(=O)O[C@@H]4C)c3nc-2c(C(=O)N[C@@H]2C(=O)N[C@H](C(C)C)C(=O)N3CCC[C@H]3C(=O)N(C)CC(=O)N(C)[C@@H](C(C)C)C(=O)O[C@@H]2C)c(N)c1=O [Dactinomycin, reference compound] (I: T[dV]P[Sar][NMeV] / II: T[dV]P[Sar][NMeV]; ester I:1-I:C, II:1-II:C; linker I:N-II:N via Actinocin(9to1)) | – | 94.3% | 97% | 0.314 µM | 2.82 µM | – | 64.6% | 1.50 | –
6 | COc1cccc2c1C(=O)c1c(O)c3c(c(O)c1C2=O)C[C@@](O)(C(C)=O)C[C@@H]3O[C@H]1C[C@H](N)[C@H](O)[C@H](C)O1 [Daunorubicin, reference compound] | 49.5% | 76.8% | 71% | 1.49 µM | – | 0.99 | – | – | efficacy on cryptosporidial infection in rats [2]: ineffective; TC50 (HCT-8 cells; human): 42.6 µM
7 | CC1(C)C(=O)C=C[C@]2(C)[C@H]3CC[C@@]4(C)[C@H](c5ccoc5)OC(=O)[C@H]5O[C@]54[C@]3(C)C(=O)C[C@@H]12 [Deacetoxy-7-oxogedunin] | – | 88.7% | 77% | 1.94 µM | 12.8 µM | – | 23.6% | 0.39 | –
8 | CC1(C)C(=O)C=C[C@]2(C)[C@H]3CC[C@@]4(C)[C@H](c5ccoc5)OC(=O)[C@H]5O[C@]54[C@]3(C)[C@H](O)C[C@@H]12 [Deacetylgedunin] | – | 91.1% | 56% | 1.77 µM | 30.9 µM | – | 14.8% | 0.23 | –
9 | COc1ccc2c(c1)OCC(Cc1ccc(OC)c(OC(C)=O)c1)C2=O (centres unmarked) [Deoxysappanone B 7,3′-dimethyl ether acetate] | 15.5% | 87.4% | 71% | 1.19 µM | >100 µM | 0.24 | – | – | –
10 | COc1ccc2c(c1)OC[C@H](Cc1ccc(OC)c(O)c1)C2=O [Deoxysappanone B 7,4′-dimethyl ether] | 35.1% | 91.3% | 52% | 0.734 µM | 64.9 µM | 0.62 | – | – | inhibition at 2 µM (Cryptosporidium parvum [3]; full course 3-44 hpi, read-out: 3-44 hpi Inhibition): 73.8%; inhibition at 2 µM (Cryptosporidium parvum [3]; treated 3-22 hpi, compound removed, read-out: 3-22 hpi Inhibition): 61.9%; inhibition at 2 µM (Cryptosporidium parvum [4]; treatment 0-3 hpi (excystation and invasion)): -5.5 ± 7.2%; inhibition at 2 µM (Cryptosporidium parvum [4]; treatment 3-10 hpi): 9.1 ± 10.4%; inhibition at 2 µM (Cryptosporidium parvum [4]; treatment 3-22 hpi, assayed at end of treatment): 18%; inhibition at 2 µM (Cryptosporidium parvum [4]; treatment 3-44 hpi (full course)): 67.2%; inhibition at 2 µM (Cryptosporidium parvum [4]; treatment 22-44 hpi): 22.9 ± 6.8%
11 | CC(C)=CCCC1(C)C=Cc2c(O)c3c(c(CC=C(C)C)c2O1)OC12C(=CC4CC1C(C)(C)OC2(C/C=C(/C)C(=O)O)C4O)C3=O (centres unmarked) [Dihydrogambogic acid] | – | 97.7% | 57% | 1.67 µM | – | – | -52% | -0.60 | TC50 (HCT-8 cells; human): 6.31 µM
12 | Cc1cccc2c3c(ccc12)C1=C(C(=O)C3=O)[C@@H](C)CO1 [Dihydrotanshinone I] | 0.2% | 87% | 75% | 3.08 µM | – | 0.00 | – | – | TC50 (HCT-8 cells; human): 25.0 µM
13 | CC[C@H](C)C(=O)O[C@H]1C[C@@H](C)C=C2C=C[C@H](C)[C@H](CC[C@@H]3C[C@@H](O)CC(=O)O3)[C@H]21 [Lovastatin, reference compound] | 34.1% | 85.8% | 58% | 2.41 µM | >100 µM | 0.60 | – | – | –
14 | CO[C@@]12[C@H](COC(N)=O)C3=C(C(=O)C(C)=C(N)C3=O)N1C[C@@H]1N[C@@H]12 [Mitomycin, reference compound] | – | 93.7% | 78% | 0.133 µM | 13.1 µM | – | 60.5% | – | Hs18S ΔCT (HCT-8 host cells (Hs18S)): 1.34
15 | COC1=C[C@@H]2[C@@H]3Cc4ccc(OC)c(O)c4[C@]2(CCN3C)CC1=O [SINOMENINE] | – | -83.5% | – | – | – | – | -71.8% | -0.78 | LD50 [5]: 285 mg/kg
16 | Cc1coc2c1C(=O)C(=O)c1c-2ccc2c1CCCC2(C)C [Tanshinone IIA] | – | 82.7% | 63% | 0.964 µM | >100 µM | – | 5.6% | 0.08 | –
17 | CC(C)[C@@H]1NC(=O)[C@H](C)OC(=O)[C@@H](C(C)C)NC(=O)[C@@H](C(C)C)OC(=O)[C@H](C(C)C)NC(=O)[C@H](C)OC(=O)[C@@H](C(C)C)NC(=O)[C@@H](C(C)C)OC(=O)[C@H](C(C)C)NC(=O)[C@H](C)OC(=O)[C@@H](C(C)C)NC(=O)[C@@H](C(C)C)OC1=O [Valinomycin, reference compound] | – | 92.3% | 87% | 0.122 µM | >50 µM | – | -9.2% | -0.13 | –
